Literature values, collected in US20070243268A1, “Compositions for regulating intestinal disorders and methods of use thereof” (priority 2005, published 2007).

Tested on: prostate cancer
Details: 970 men, 200 mcg selenium daily (as selenium-enriched yeast) for 4.5 years

Question: Which “reduction in the incidence of prostate cancer” value does the source give for `[Se]` [selenium] here?
Answer: The value was 63%.
